Reference: BigSolDB 2.1

Cc1ccc(NC(=O)C(C)Cl)cc1 (stereo not given)
Conditions	solubility (mole fraction)
in 2-butanone, 271.23 K	0.0774
in 2-butanone, 275.52 K	0.0829
in 2-butanone, 280.9 K	0.0892
in 2-butanone, 285.45 K	0.105
in 2-butanone, 291.46 K	0.115
in 2-butanone, 296.73 K	0.128
in 2-butanone, 302.41 K	0.13
in 2-butanone, 307.63 K	0.149
in 2-butanone, 313.15 K	0.173
in 2-butanone, 319.11 K	0.208
in acetone, 271.96 K	0.0616
in acetone, 283.37 K	0.0767
in acetone, 287.02 K	0.0811
in acetone, 290.81 K	0.0861
in acetone, 294.37 K	0.0917
in acetone, 300.04 K	0.105
in acetone, 302.89 K	0.114
in acetone, 307.95 K	0.136
in acetone, 310.94 K	0.15
in acetone, 315.55 K	0.155
in toluene, 273.24 K	0.00517
in toluene, 278.33 K	0.00719
in toluene, 285.5 K	0.00929
in toluene, 290.93 K	0.0125
in toluene, 297.29 K	0.0168
in toluene, 301.24 K	0.02
in toluene, 307.73 K	0.0278
in toluene, 312.06 K	0.0356
in toluene, 315.66 K	0.0413
in toluene, 321.66 K	0.0579
